Test results from patent publication US6797728B2, “Use of intracellular calcium chelators to increase surfactant secretion in the lungs” (Thomas Jefferson University, priority 2000, dated 2004).
Where two headings read alike, the source gives them in different places.

Experiments:
[1] = tested on: [Ca^2+]l in type II cells; assay: ER (lumenal) calcium concentration, fura2ff fluorescence with Mn2+ quench; type: cell-based, rat; conditions: fura2ff 340/380 nm ratio, Mn2+ added, FIG. 7
Description: Type II cells were prepared as described and plated on glass coverslips that had been pretreated with poly-L-lysine (Sigma, 0.01%, 20° C., 15 mins). After incubation overnight at 37° C. in MEM-10% FCS, the cells were washed three times with serum-free MEM and once with loading buffer (121 mM NaCl, 4.7 mM KCl, 1.2 mM KH2P04, 1.2 mM MgSO4, 2% BSA, 10 mM glucose, 20 mM HEPES, 2 mM CaCl2). The cells were loaded in loading buffer containing 10 μM Fura-2FF(AM) (Teflabs, Austin, Tex.) and 0.06% Pluronic Acid (Molecular Probes, Inc.) for two hours with shaking at 37° C. The coverslip was washed in calcium-free imaging buffer (121 mM NaCl, 4.7 mM KCl, 1.2 mM KH2PO4, 1.2 mM MgSO4, 10 mM glucose, 20 mM HEPES), inserted into a thermostatically regulated chamber (37° C.), and mounted on an inverted fluorescence microscope in 1 ml of imaging buffer. Fluorescence imaging following excitation at 340 nm and 380 nm was performed (supra).
During imaging MnCl2 was added at time=0 to a final concentration of 500 μM followed by either SP-A, ionomycin, or TG (final concentrations 100 ng/ml, 1 μM and 4 μM respectively).
Decreases in [Ca^2+]l, rather than increases in [Ca^2+]i, were hypothesized to be the critical regulator of surfactant secretion by all secretagogues, with the exception of PMA. This theory predicts that BAPTA-AM, and other calcium-dependent secretagogues, would decrease [Ca^2+]l, but that PMA would not. Thus, type II cells were loaded with fura2ff. This fluorophore has a much lower affinity for calcium in the μM range than fura2 does, and is therefore used to assess changes in [Ca^2+]l. Type II cells were also treated with Mn^2+, which binds cytoplasmic fura2ff and prevents its binding to Ca^2+. (Dorn, et al, Br. J. Pharmacol. 97: 163-170, 1989; Kuroki, et al, Biochem. J. 115: 115-119, 1991; Miyata, et al, Am. J. Physiol. 261: H1123-H1134, 1991). Any changes in the lumenal free calcium concentration were measured as changes in the ratio of fura2ff excitation at 340 nm to that at 380 nm. […] PMA had no effect.

[2] = tested on: alveolar type II cells; assay: Surfactant secretion assay (secretion of 3H-labeled phospholipid by type II cells); type: cell-based, rat; conditions: for % PL secreted: BAPTA 25 μM, SP-A 100 ng/ml, alone or together, percentage of 3H-labeled phospholipid secreted, no additions 8.33; for effect of re-adding calcium after overnight depletion on secretagogue-induced PL secretion: Ca2+ added back to 1.64 mM at start of the 2 hr secretion assay; for effect of calcium depletion on secretagogue-stimulated PL secretion: cells in Ca2+-free medium overnight and during the 2 h assay, ATP 500 μM, TG 10 μM, Io 1 μM, PMA 50 ng/ml, BAPTA-AM 25 μM; for effect of removing extracellular Ca2+ during the assay on secretagogue-elicited surfactant secretion: normal medium overnight, Ca2+-free medium for the 2 h assay, FIG. 4
Description: Freshly isolated type II cells were prepared according to standard techniques, originally described by Dobbs (Dobbs, et al, AM. Rev. Respir. Dis. 134, 141-145, 1986), and later modified by Sen and Chander (Sen and Chander, Biochem. J. 298: 681-687, 1994). The use of these techniques has been previously reported. (Strayer, et al, Ex. Cell Res. 226: 90-97, 1996; Strayer, et al, Rec. Signal Transd. 7: 111-120, 1997). Briefly, lungs of anesthetized rats were cleared of blood and treated with elastase endotracheally (Worthington Biochemical, Freehold, N.J.) to obtain free cells. The cells were separated from lung debris and plated on bacteriological plates coated with normal rat IgG (Sigma Chemical Co., St. Louis, Mo.). After 1 hr, free cells were collected by panning, pelleted, and resuspended (0.8×10^6 cells/ml) in minimum essential medium (MEM)+10% fetal bovine serum (FCS, Life Technologies, Gaithersburg, Md.).
Secretion studies were performed as described by Sen and Chander. (Sen and Chander, Biochem. J. 298: 681-687, 1994). Briefly, 0.8×10^6 alveolar type II cells were cultured for 18 h in MEM with 10% FBS+0.5 μCi of [methyl-^3H]-choline (Amersham, Arlington Heights, Ill.) to label cellular phospholipids (PL) metabolically. Cells were washed to remove non-adherent cells and unincorporated radioactivity. After replacing this medium with fresh MEM, plates were incubated for 15 min. SP-A (100 ng/ml) was added to selected plates, followed by incubation for an additional 15 min.; secretagogues were then added at the appropriate concentrations [control (no addition), ATP (500 μM), TG (10 μM), ionomycin (1 μM), PMA (50 ng/ml)]. At this point (t=0) in each experiment, some samples were removed for analysis of secreted labeled lipids to establish a baseline. Incubation proceeded for an additional 2 h for all other plates. Following this incubation, media were removed and centrifuged (15 min., 300×g) to pellet cells that detached during incubation. These cells were later pooled with those recovered from the plates. Lipids from both media and plates were extracted (Sen and Chander, Biochem. J. 298: 681-687, 1994) after adding [methyl-^14C]-DPPC (Amersham, Arlington Heights, Ill.) as a recovery standard, and egg phosphatidylcholine (Sigma Chemical Co., St. Louis, Mo.) as a carrier lipid. Recovered lipids were dissolved in Scintiverse II fluid (Fisher Scientific, Pittsburgh, Pa.) and the radioactivity of these lipid extracts measured with a scintillation counter (Beckman Instruments, Fullerton, Calif.). ^3H-labeled phospholipid recovery was normalized to recovery of [methyl-^14C]-DPPC. Phospholipid secretion was determined as percent secretion=(cpm in lipids recovered from media×100)/(cpm in lipids recovered from media and plates).

[3] = read-out: affinity of BAPTA for calcium; cited from earlier work
[4] = tested on: alveolar type II cells; assay: Surfactant secretion assay (secretion of 3H-labeled phospholipid by type II cells); type: cell-based, rat; conditions: within 4 hours of treatment; control cells release about 7%
[5] = tested on: [Ca^2+]i in type II cells; assay: Cytosol free calcium concentration, fura2 digital imaging fluorescence microscopy; type: cell-based, rat; conditions: fura2 340/380 nm ratio, compared to mock-treated cells
Description: 10^6 freshly isolated type II cells were added to 35 mm tissue culture plates, each containing a polylysine (Sigma Chemical Co.) coated 25 mm diameter coverslip and incubated (37° C., 5% CO2) for at least 2 hr. Twenty min before use, Fura2/AM (Molecular Probes) was added (final concentration, 3 μM) to each coverslip. After Fura2 loading, the coverslips were washed with cell incubation buffer (121 mM NaCl, 4.7 mM KCl, 1.2 mM KH2PO4, 1.2 mM MgSO4, 2 mM CaCl2, 10 mM glucose, 5 mM NaHCO3, 0.2% BSA, and 10 mM HEPES/NaOH, pH 7.4) and inserted into a thermostatically regulated chamber (37° C.). Cell incubation buffer was added and the whole assembly placed on the stage of a Nikon Diaphot inverted microscope. At appropriate times (see infra), secretagogues in the appropriate concentration (see supra) were added. Fluorescence images of the cells were collected by exciting the cells alternately at 340 and 380 nm and measuring emission at 500 nm using a charge-coupled device camera (Photometrics, Inc.) as described previously. (Rooney, et al, Biol. Chem 264: 17131-17141, 1989). Image acquisition and analysis were done with Macintosh computers running customized image-processing software. The ratio (340/380) of Fura2 excitation was calibrated to [Ca^2+]i as described. (Rooney, et al, Biol. Chem 264: 17131-17141, 1989; Grynkiewicz, et al, J. Biol. Chem. 260: 3440-3450, 1985).

[6] = tested on: type II cells
Description: (§1) Viability of type II cells was tested both by trypan blue exclusion, and by tetrazolium/formazan assay (Promega Corp., Madison, Wis.), which measures mitochondrial dehydrogenases. These enzymes are only present in active form in living cells and are absent in nonviable cells. […] For such studies, an assay solution containing the tetrazolium compound (3-(4,5-dimethylthiazol-2-yl)-5-(3-carboxymethoxyphenyl)-2-(4-sulfonyl)-2H-tetrazolium, inner salt; MTS) and an electron-coupling reagent (phenazine methosulfate; PMS) in MEM is added to the cells. […] Correction was made for the small effect of BAPTA itself on this reaction by running a parallel assay on plates with no cells.
(§2) In these studies, cellular viability was determined in two ways. Viable cells enumerated by counting trypan blue-excluding cells. […] In addition, cellular viability in BAPTA-AM-treated cultures was measured using the tetrazolium/formazan assay for mitochondrial dehydrogenase.

[7] = tested on: type II cells; remark: listed apart in the source
Description: as §1, §2

[8] = tested on: type II cells; assay: Type II cell viability by trypan blue exclusion; conditions: at the concentrations of FIG. 2; compared to each other and to untreated type II cells
Description: as §1, §2

Compound	effect on lumenal free calcium concentration [Ca^2+]l [1]	effect of re-adding calcium after overnight depletion on secretagogue-induced PL secretion [2]	effect of calcium depletion on secretagogue-stimulated PL secretion [2]	effect of removing extracellular Ca2+ during the assay on secretagogue-elicited surfactant secretion [2]	further results
surfactant-associated protein-A [SP-A]	increased [Ca^2+]l	–	–	–	% PL secreted [2]: 4.98%; BAPTA-induced surfactant secretion after SP-A pretreatment ([2]; SP-A pretreatment, then BAPTA-AM loading concentration 25 μM, versus cells not exposed to SP-A): significantly less surfactant secretion
C/C=C(/C)C(=O)O[C@H]1C(C)=C2[C@H]([C@@H]1OC(=O)CCCCCCC)[C@@](C)(OC(C)=O)C[C@H](OC(=O)CCC)[C@@]1(O)[C@H]2OC(=O)[C@@]1(C)O [TG, thapsigargin]	–	restored	partially inhibited	Statistically significant but small decreases	–
C[C@H](CCC(=O)O)C[C@H](C)C[C@H](C)C(=O)/C=C(\O)[C@H](C)C[C@H](C)C/C=C/[C@@H](C)[C@@H](O)[C@@H](C)[C@@H](O)C[C@@H]1CC[C@@](C)([C@H]2CC[C@@](C)([C@@H](C)O)O2)O1 [Io, ionomycin]	decreased [Ca^2+]l	restored	prevented	not significantly altered	–
O=C(O)CN(CC(=O)O)c1ccccc1OCCOc1ccccc1N(CC(=O)O)CC(=O)O [BAPTA, 1,2-bis(2-aminophenoxy)ethane-N,N,N, N-tetraacetic acid]	decreased [Ca^2+]l	restored	prevented BAPTA secretagogue activity	not significantly altered	Kd [3]: 160 nM; surfactant secretion at 5 μM BAPTA ([2]; dose-response studies, concentration range of 5 μM): below the threshold; concentrations at which BAPTA stimulates surfactant secretion (powerful secretagogue) ([2]; dose-response, FIG. 2): 25 to 100 µM
CC(=O)OCOC(=O)CN(CC(=O)OCOC(C)=O)c1ccccc1OCCOc1ccccc1N(CC(=O)OCOC(C)=O)CC(=O)OCOC(C)=O [BAPTA-AM, 1,2-bis(2-aminophenoxy)ethane-N,N,N, N-tetraacetic acid acetoxymethyl ester]	–	–	–	–	stored surfactant released [4]: about ⅔; % PL secreted [2]: 15.47%; effect on cytosol free calcium concentration [Ca^2+]i [5]: caused [Ca^2+]i to decrease somewhat; effect on cell viability (trypan blue-excluding cells) [6]: Neither BAPTA-AM nor TPEN at these concentrations had any effect on cell viability; viability of treated type II cells (tetrazolium/formazan) [7]: does not differ from that of control cells
c1ccc(CN(CCN(Cc2ccccn2)Cc2ccccn2)Cc2ccccn2)nc1 [TPEN, N,N,N′,N′-tetrakis-(2-pyridylmethyl) ethylenediamine]	–	–	–	–	secretagogue activity ([2]; TPEN up to 150 μM, FIG. 2): no secretagogue activity; effect on cell viability (trypan blue-excluding cells) [8]: Neither BAPTA-AM nor TPEN at these concentrations had any effect on cell viability
Nc1ncnc2c1ncn2[C@@H]1O[C@H](COP(=O)(O)OP(=O)(O)OP(=O)(O)O)[C@@H](O)[C@H]1O [ATP]	–	–	prevented	–	–
CCCCCCCCCCCCCC(=O)O[C@@H]1[C@@H](C)[C@@]2(O)[C@@H](C=C(CO)C[C@]3(O)C(=O)C(C)=C[C@@H]23)[C@@H]2C(C)(C)[C@]12OC(C)=O [PMA, phorbol 12-myristate 13-acetate]	no effect	increased PMA-induced secretion, but this effect was not statistically significant	did not alter	Statistically significant but small decreases	effect on cytosol free calcium concentration [Ca^2+]i [5]: did not alter [Ca^2+]i
